Literature values, collected in US5695952A, “Method for producing [Leu^13 ]motilin” (Kyowa Hakko Kogyo Co., Ltd., priority 1986, dated 1997).

Conditions: M. Fujino et al., Chem. Pharm. Bull., 26, 101 (1978)

SMILES: CC[C@H](C)[C@H](NC(=O)[C@@H]1CCCN1C(=O)[C@@H](NC(=O)[C@@H](N)Cc1ccccc1)C(C)C)C(=O)N[C@@H](Cc1ccccc1)C(=O)N[C@H](C(=O)N[C@@H](Cc1ccc(O)cc1)C(=O)NCC(=O)N[C@@H](CCC(=O)O)C(=O)N[C@@H](CC(C)C)C(=O)N[C@@H](CCC(N)=O)C(=O)N[C@@H](CCCNC(=N)N)C(=O)N[C@@H](CCSC)C(=O)N[C@@H](CCC(N)=O)C(=O)N[C@@H](CCC(=O)O)C(=O)N[C@@H](CCCCN)C(=O)N[C@@H](CCC(=O)O)C(=O)N[C@@H](CCCNC(=N)N)C(=O)N[C@@H](CC(N)=O)C(=O)N[C@@H](CCCCN)C(=O)NCC(=O)N[C@@H](CCC(N)=O)C(=O)O)[C@@H](C)O [motilin]
- motilin activity after oxidation of Met to the sulfoxide form: decreased motilin activity
